Data taken from patent US20230322756A1, “FUSED IMIDAZOLE DERIVATIVE, PREPARATION METHOD THEREFOR, AND MEDICAL USE THEREOF” (JIANGSU HENGRUI MEDICINE CO., LTD., priority 2020, published 2023).

Key:
GLP-1 receptor = GLP-1 receptor (Homo sapiens (Human), UniProt P43220); assay: Agonist activity against GLP-1 receptor, CRE-luciferase reporter (ONE-Glo) in CHO-K1/CRE-luc/GLP-1 receptor cells; format: cell-based; settings: 6 h incubation
Source text: This experiment was intended to test the agonist activity of the compound molecules against the GLP-1 receptor and evaluate the in vitro activity of the molecules according to EC50. The experiment adopted a ONE-Glo™ Luciferase Assay System (Promega, E6110). Under the action of compound molecules, GLP-1R downstream signaling pathways were activated to cause elevated cAMP level. The combination of cAMP and CRE could start the transcription expression of CRE downstream luciferase genes, the luciferase could emit fluorescence when reacting with substrates thereof, and the activity of the compound for agonizing GLP-1 receptors was reflected by measuring fluorescence signals through a ONE-Glo™ reagent.
Stably-expressed CHO-K1/CRE-luc/GLP-1 receptor cell strains (self-construction of GLP-1 receptor plasmid; CRE-luc plasmid Promega E8471) were constructed. CHO-K1/CRE-luc/GLP-1 receptor cells were digested, and resuspended after centrifugation. […] The plate was incubated in an incubator for 16 h (37° C., 5% CO2).
The compound was dissolved in DMSO to prepare a stock solution with an initial concentration of 20 mM. The starting concentration of the small molecule compound was 0.2 mM, and the compound underwent 3-fold serial dilution for a total of 10 concentration points, with DMSO at the 11th point. To another 96-well plate was added 95 μL of cell culture medium (DME/F-12+10% FBS), 5 μL of test samples with different concentrations were added to each well, followed by uniform mixing, and then 10 μL of test samples with different concentrations were added to each well, with two duplicate wells set for each sample. The plate was incubated in an incubator for 6 h (37° C., 5% CO2). The 96-well cell culture plate was taken out, and 100 μL of ONE-Glo™ reagent was added to each well, followed by incubation at room temperature for 10 min. The plate was placed in a microplate reader (EnVision 2105, PE) for determination of chemiluminescence.
Data were processed and analyzed using Microsoft Excel and Graphpad Prism 5.

hERG potassium channel = hERG potassium channel (Homo sapiens (Human), UniProt Q12809); assay: Blocking effect on hERG potassium currents, manual patch-clamp in CHO cells stably expressing hERG channel; format: cell-based; settings: read-out: IC50 for the blocking effect on the hERG potassium ion channel
Source text: This example is intended to assess the blocking effect of the compounds of the present disclosure and positive compound 1 (see the compound of Example 7 on page 125 of WO2019239319A1) on hERG potassium currents in a stable cell strain transfected with an hERG potassium channel by a manual patch-clamp assay. The structure of positive compound 1 is shown below:
The cells used in this experiment were from a CHO cell line (provided by Sophion Bioscience, Denmark) transfected with hERG cDNA and stably expressing hERG channel at cell passage number of P5. Cells were cultured in a medium containing the following components (all from Invitrogen): Ham's F12 medium, 10% (v/v) inactivated fetal bovine serum, 100 μg/mL hygromycin B, and 100 μg/mL geneticin.
CHO hERG cells were grown in a culture dish containing the above culture medium and cultured in an incubator at 37° C. with 5% CO2. 24-48 h before the electrophysiological experiment, CHO hERG cells were transferred to round slides placed in the culture dish and grown in the same culture medium and culture conditions as above. The density of CHO hERG cells on each round slide was required to achieve the requirement that most cells were independent and individual.
In this experiment, a manual patch-clamp system (HEKA EPC-10 signal amplifier and digital conversion system, purchased from HEKA Electronics, Germany) was used for whole cell current recording. Round slides with CHO hERG cells grown on the surface were placed in an electrophysiological recording chamber under an inverted microscope. The chamber was continuously perfused with extracellular fluid (approximately 1 mL/min). The experimental procedures were performed by conventional whole-cell patch-clamp current recording technology. Unless otherwise stated, the experiment was performed at room temperature ([…]). The cells were clamped at a voltage of −80 mV. The cell clamp voltage was depolarized to +20 mV to activate the hERG potassium channel, and then clamped to −50 mV 5 s later to eliminate inactivation and generate tail currents. The tail current peak was used as a value for the numeral value of the hERG current. After the hERG potassium currents recorded in the above step were stable under the continuous extracellular fluid perfusion in the recording chamber, the drug to be tested could be added for perfusion until the inhibitory effect of the drug on the hERG current reached a stable state. Generally, the last superposition of 3 consecutive current recording lines is used as a criterion for determining whether a stable state is reached. […]
The experimental data were analyzed by data analysis software supplied by HEKA Patchmaster(V2x73.2), Microsoft Excel, and Graphpad Prism 5.0. […]

Sequence of GLP-1 receptor (P43220 24-463): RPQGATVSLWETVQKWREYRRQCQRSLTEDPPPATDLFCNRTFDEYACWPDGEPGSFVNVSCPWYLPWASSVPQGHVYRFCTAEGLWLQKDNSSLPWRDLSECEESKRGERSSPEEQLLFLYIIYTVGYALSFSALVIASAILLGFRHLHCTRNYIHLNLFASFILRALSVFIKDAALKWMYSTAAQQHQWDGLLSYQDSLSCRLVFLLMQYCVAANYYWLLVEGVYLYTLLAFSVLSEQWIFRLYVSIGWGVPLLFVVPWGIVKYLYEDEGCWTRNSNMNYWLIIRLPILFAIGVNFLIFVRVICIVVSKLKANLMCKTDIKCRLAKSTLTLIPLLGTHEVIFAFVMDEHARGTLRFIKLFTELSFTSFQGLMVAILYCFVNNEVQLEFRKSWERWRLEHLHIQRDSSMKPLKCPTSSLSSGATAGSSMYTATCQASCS
Sequence of hERG potassium channel (Q12809 whole entry): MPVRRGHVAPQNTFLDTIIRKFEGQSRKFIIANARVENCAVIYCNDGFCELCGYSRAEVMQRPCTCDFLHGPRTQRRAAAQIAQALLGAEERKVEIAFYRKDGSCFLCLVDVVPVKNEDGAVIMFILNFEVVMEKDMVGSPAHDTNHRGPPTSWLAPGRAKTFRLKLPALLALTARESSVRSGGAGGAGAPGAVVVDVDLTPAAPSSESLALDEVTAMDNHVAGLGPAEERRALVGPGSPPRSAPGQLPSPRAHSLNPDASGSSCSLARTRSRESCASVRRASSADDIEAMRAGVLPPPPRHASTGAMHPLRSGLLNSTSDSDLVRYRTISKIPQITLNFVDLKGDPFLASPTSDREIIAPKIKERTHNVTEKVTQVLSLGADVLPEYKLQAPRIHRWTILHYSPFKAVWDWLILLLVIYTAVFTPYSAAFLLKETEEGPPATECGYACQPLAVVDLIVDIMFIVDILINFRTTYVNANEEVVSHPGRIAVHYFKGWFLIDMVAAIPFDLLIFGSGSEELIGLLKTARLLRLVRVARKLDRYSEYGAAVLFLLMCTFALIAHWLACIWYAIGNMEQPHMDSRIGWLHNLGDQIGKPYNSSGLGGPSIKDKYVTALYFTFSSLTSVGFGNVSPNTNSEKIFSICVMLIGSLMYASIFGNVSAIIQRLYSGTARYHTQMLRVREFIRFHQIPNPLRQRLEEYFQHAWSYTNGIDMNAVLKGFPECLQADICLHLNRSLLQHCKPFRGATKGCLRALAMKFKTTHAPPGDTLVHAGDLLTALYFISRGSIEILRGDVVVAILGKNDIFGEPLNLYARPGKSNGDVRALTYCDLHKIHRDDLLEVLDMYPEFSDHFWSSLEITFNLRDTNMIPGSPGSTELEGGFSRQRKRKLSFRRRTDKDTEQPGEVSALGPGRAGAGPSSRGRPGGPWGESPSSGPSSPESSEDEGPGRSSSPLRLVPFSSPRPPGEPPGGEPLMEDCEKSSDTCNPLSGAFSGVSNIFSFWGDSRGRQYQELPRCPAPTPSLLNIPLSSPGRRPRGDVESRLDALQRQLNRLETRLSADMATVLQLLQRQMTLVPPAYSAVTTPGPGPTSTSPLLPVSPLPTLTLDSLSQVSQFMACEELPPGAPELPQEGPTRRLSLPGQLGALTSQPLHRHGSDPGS

Compound | EC50 (GLP-1 receptor) | Emax (GLP-1 receptor) | IC50 (hERG potassium channel)
CC1(c2ccc(Cl)cc2F)COc2cccc(C3CCN(Cc4nc5ccc(C(=O)O)cc5n4C[C@@H]4CCO4)CC3)c2O1 (stereo partly drawn) [Example 20, 2-((4-(3-(4-Chloro-2-fluorophenyl)-3-methyl-2,3-dihydrobenzo[b][1,4]dioxan-5-yl)piperidin-1-yl)methyl)-1-(((S)-oxetan-2-yl)methyl)-1H-benzo[d]imidazole-6-carboxylic acid] | 51 nM | 90% | –
O=C(O)c1ccc2nc(CN3CCC(c4cccc5c4OC(c4ccc(Cl)cc4F)CO5)CC3)n(C[C@@H]3CCO3)c2n1 (stereo partly drawn) [Example 12, 2-((4-(3-(4-Chloro-2-fluorophenyl)-2,3-dihydrobenzo[b][1,4]dioxan-5-yl)piperidin-1-yl)methyl)-3-((S)-oxetan-2-ylmethyl)-3H-imidazo[4,5-b]pyridine-5-carboxylic acid] | 1.72 nM | 114% | 26100 nM
O=C(O)c1ccc2nc(CN3CCC(c4cccc5c4OCC(c4nc6ccccc6s4)O5)CC3)n(C[C@@H]3CCO3)c2c1 (stereo partly drawn) [Example 9, 2-((4-(2-(Benzo[d]thiazol-2-yl)-2,3-dihydrobenzo[b][1,4]dioxan-5-yl)piperidin-1-yl)methyl)-1-(((S)-oxetan-2-yl)methyl)-1H-benzo[d]imidazole-6-carboxylic acid] | 2.05 nM | 104% | –
O=C(O)c1ccc2nc(CN3CCC(c4cccc5c4OC[C@@H](c4nc6ccccc6s4)O5)CC3)n(C[C@@H]3CCO3)c2c1 [Example 11, 2-((4-((S)-2-(Benzo[d]thiazol-2-yl)-2,3-dihydrobenzo[b][1,4]dioxan-5-yl)piperidin-1-yl)methyl)-1-(((S)-oxetan-2-yl)methyl)-1H-benzo[d]imidazole-6-carboxylic acid] | 1.68 nM | 104% | –
CC1(c2ccc(Cl)cc2F)COc2c(cccc2C2CCN(Cc3nc4ccc(C(=O)O)cc4n3C[C@@H]3CCO3)CC2)O1 (stereo partly drawn) [Example 18, 2-((4-(2-(4-Chloro-2-fluorophenyl)-2-methyl-2,3-dihydrobenzo[b][1,4]dioxan-5-yl)piperidin-1-yl)methyl)-1-(((S)-oxetan-2-yl)methyl)-1H-benzo[d]imidazole-6-carboxylic acid] | 18.4 nM | 103% | –
N#Cc1ccc(C2COc3cccc(C4CCN(Cc5nc6ccc(C(=O)O)cc6n5C[C@@H]5CCO5)CC4)c3O2)c(F)c1 (stereo partly drawn) [Example 16, 2-((4-(3-(4-Cyano-2-fluorophenyl)-2,3-dihydrobenzo[b][1,4]dioxan-5-yl)piperidin-1-yl)methyl)-1-((S)-oxetan-2-ylmethyl)-1H-benzo[d]imidazole-6-carboxylic acid] | 1.42 nM | 116% | –
O=C(O)c1ccc2nc(CN3CC=C(c4cccc5c4OC(c4ccc(Cl)cc4F)CO5)CC3)n(C[C@@H]3CCO3)c2c1 (some centres unmarked) [Example 17] | 9.9 nM | 112% | –
O=C(O)c1ccc2nc(CN3CCN(c4cccc5c4O[C@@H](c4ccc(Cl)cc4F)CO5)CC3)n(C[C@@H]3CCO3)c2c1 [Example 14, 2-((4-((S)-3-(4-Chloro-2-fluorophenyl)-2,3-dihydrobenzo[b][1,4]dioxan-5-yl)piperazin-1-yl)methyl)-1-(((S)-oxetan-2-yl)methyl)-1H-benzo[d]imidazole-6-carboxylic acid] | 1.79 nM | 104% | –
O=C(O)c1ccc2nc(CN3CCC(c4cccc5c4OC[C@H](c4nc6ccccc6s4)O5)CC3)n(C[C@@H]3CCO3)c2c1 [Example 10, 2-((4-((R)-2-(Benzo[d]thiazol-2-yl)-2,3-dihydrobenzo[b][1,4]dioxan-5-yl)piperidin-1-yl)methyl)-1-(((S)-oxetan-2-yl)methyl)-1H-benzo[d]imidazole-6-carboxylic acid] | 1.19 nM | 103% | –
O=C(O)c1ccc2nc(CN3CCC(c4cccc5c4OC(c4ccc(Cl)cn4)CO5)CC3)n(C[C@@H]3CCO3)c2c1 (stereo partly drawn) [Example 13, 2-((4-(3-(5-Chloropyridin-2-yl)-2,3-dihydrobenzo[b][1,4]dioxan-5-yl)piperidin-1-yl)methyl)-1-(((S)-oxetan-2-yl)methyl)-1H-benzo[d]imidazole-6-carboxylic acid] | 1.76 nM | 108% | –
O=C(O)c1ccc2nc(CN3CCC(c4cccc5c4OC(c4nc6ccccc6s4)CO5)CC3)n(C[C@@H]3CCO3)c2c1 (stereo partly drawn) [Example 1, 2-((4-(3-(Benzo[d]thiazol-2-yl)-2,3-dihydrobenzo[b][1,4]dioxan-5-yl)piperidin-1-yl)methyl)-1-(((S)-oxetan-2-yl)methyl)-1H-benzo[d]imidazole-6-carboxylic acid] | 0.56 nM | 109% | –
